Key:
hippocampi of mice = experiment: Stereotaxic injection into mouse hippocampus, quantitative real-time PCR; type: in vivo; details: estimated 1 nM intra-hippocampal concentration, 48 hours after injection
Procedure: Ten week old B6/SJL mice were stereotaxically injected on the right side of their hippocampi with sAPPα, a 10 amino acid fragment, or a scrambled 10-mer to an estimated 1 nM intra-hippocampal concentration. The contralateral sides were injected with artificial cerebrospinal fluid. Each injection consisted of […] of solution delivered over the period of 10 minutes. 48 hours after surgery, the mice were perfused with cold PBS, and their hippocampi were dissected and stored in stabilizing solution for subsequent RNA extraction.
RNA was extracted from hippocampal samples, DNase treated, and reverse transcribed. The cDNA was then used in quantitative real-time PCR performed with SYBR green on the Roche LightCycler system. Portions of each RNA sample were also used in no-RT traditional PCR reactions to validate the absence of DNA contamination.

tau = experiment: Tau phosphorylation in human cortical slices (AT8, phospho-tau(Thr231), electron microscopy); type: cell-based
Procedure: β-amyloid1-42 and reverse Aβ (Aβ42-1) were obtained from BACHEM (Torrance, Calif.). These peptides were dissolved in 0.1% NH3OH at 222 μM. For treatments, Aβ or reverse Aβ was aggregated at 50 μM in Neurobasal media with B-27 supplement and 0.5 mM glutamine at 37° C. for 24 hours. […] Human TTR (Calbiochem) was added to slices together with the Aβ treatment at final concentrations of 0.03, 0.3, and 3 μM TTR. sAPPα was obtained from Sigma (St. Louis, Mo.). Unless otherwise stated, all sAPPα treatments were performed at 1 nM 48 hours prior to the addition of Aβ. The 10 amino acid fragment of the carboxyl-terminal region of sAPPα (592-601 of APP695; SEVKMDAEFR was added according to the same protocol for sAPPα. Because a variable amount of tissue was obtained from each patient, not all treatments were performed on all patients.
Slices were fixed in 4% PFA for 20 minutes, incubated in 30% sucrose in phosphate buffered saline overnight, and frozen in OCT embedding medium. Frozen sections with a width of 10 μm were taken through each slice. Phosphorylated tau was detected with the monoclonal AT8 antibody (1:200; Research Diagnostics, Flanders, N.J.) and anti-phospho-tau(Thr231) (1:500; Calbiochem, San Diego, Calif.). As a control, pre-immune rabbit or mouse IgG (Vector Laboratories, Burlingame, Calif.) was used in place of the primary antibody. A biotinylated anti-rabbit IgG or anti-mouse IgG was used as the secondary antibody. The Vectastain Elite ABC kit (Vector) and tyramide conjugated to either Alexa Fluor 488 or 568 (Molecular Probes, Eugene, Oreg.) were used to visualize the antibody staining. Anti-NeuN (1:250; Chemicon International, Temecula, Calif.) together with an anti-mouse IgG secondary antibody conjugated to Alexa Fluor 647 was used to detect the neuronal marker NeuN. Sections were imaged using either the Bio-Rad Laser Scanning Confocal system or epifluorescence (Zeiss, Thornwood, N.Y.).

human cortical slices = experiment: TUNEL/NeuN staining of human cortical slices; type: cell-based
Procedure: β-amyloid1-42 and reverse Aβ (Aβ42-1) were obtained from BACHEM (Torrance, Calif.). These peptides were dissolved in 0.1% NH3OH at 222 μM. For treatments, Aβ or reverse Aβ was aggregated at 50 μM in Neurobasal media with B-27 supplement and 0.5 mM glutamine at 37° C. for 24 hours. Then, the slice culture media was removed, and the slices were treated with 1 mL of 25 μM or 50 μM Aβ, reverse Aβ, or vehicle for 24 hour. Human TTR (Calbiochem) was added to slices together with the Aβ treatment at final concentrations of 0.03, 0.3, and 3 μM TTR. sAPPα was obtained from Sigma (St. Louis, Mo.). Unless otherwise stated, all sAPPα treatments were performed at 1 nM 48 hours prior to the addition of Aβ. The 10 amino acid fragment of the carboxyl-terminal region of sAPPα (592-601 of APP695; SEVKMDAEFR was added according to the same protocol for sAPPα. Because a variable amount of tissue was obtained from each patient, not all treatments were performed on all patients.
Cortical slice cryosections were stained with terminal deoxynucleotidyl transferase-mediated, dUTP nick end labeling (TUNEL) and with an anti-NeuN antibody. Cells with DNA fragmentation were determined by the terminal deoxynucleotidyl transferase incorporation of fluorescein isothiocyanate (FITC)-12-dUTP into DNA (In Situ Cell Death Detection kit, Roche Biochem, Indianapolis, Ind.). At least 3 random images per slice were generated by confocal analysis at 600× magnification. The number of TUNEL positive, NeuN positive, and both TUNEL and NeuN positive cells were then quantified.

[1] = Aβ treatment, 1 subject, FIG. 6B

| Substance | Expression of IGFBP2 in treated vs control side of hippocampus (hippocampi of mice; FIG. 8) | Expression of IGF2 in treated vs control side of hippocampus (hippocampi of mice; FIG. 10) | AT8 positive cells (tau; 50 μM Aβ) | Somatic phospho-tau(Thr231) in NeuN positive neurons (tau; 50 μM Aβ) | Tangle-like structures, electron microscopy (tau; 50 μM Aβ for 1 week) | DNA strand breaks as indicated by TUNEL (human cortical slices; 50 μM Aβ) | Percent of neurons that were TUNEL positive (% TUNEL/NeuN) (human cortical slices; [1]) | Percent of total TUNEL positive cells (% TUNEL) (human cortical slices; [1]) |
| --- | --- | --- | --- | --- | --- | --- | --- | --- |
| SEVKMDAEFR | induced an increase in expression | induced an increase in expression | – | – | – | – | – | – |
| β-amyloid1-42 [Aβ] | – | – | several AT8 positive cells | several NeuN positive neurons with high levels of somatic phospho-tau(Thr231) | small number of neurons with tangle-like structures | resulted in DNA strand breaks | increased | increased |
